These results are taken from patent publication US4410629A, “ML-236B Derivatives and their preparation” (Sankyo Company Limited, priority 1980, dated 1983).

Each structure is given as a SMILES string. Counter-ions that a name gives are not always drawn.

Assay [1] has as its system cholesterol biosynthesis. The experiment in a line: Inhibition of cholesterol biosynthesis (method of J. Biol. Chem. 234, 2835 (1959)). The class given is biochemical.
The test system of assay [2] is serum cholesterol levels. As to conditions: animals; J. Antibiotics 29, 1346 (1976); cited from earlier work.
Assay [3] has as its system 3-hydroxy-3-methylglutaryl-coenzyme A reductase. As to conditions: competing with the rate-limiting enzyme HMG-CoA reductase; J. Antibiotics 29, 1346 (1976); cited from earlier work.

As for `CC[C@H](C)C(=O)O[C@H]1CC=CC2=C[C@@H](O)[C@H](C)[C@H](CC[C@@H](O)C[C@@H](O)CC(=O)OC)[C@H]21` [IsoM-4' methyl ester], in assay [1], the “concentration required to inhibit cholesterol biosynthesis by 50%” value came out at 0.007 µg/mL.

As for `CC[C@H](C)C(=O)O[C@H]1C[C@@H](O)C=C2C=C[C@H](C)[C@H](CC[C@@H](O)C[C@@H](O)CC(=O)O)[C@H]21` [M-4' sodium salt], the “concentration required to inhibit cholesterol biosynthesis by 50%” value in assay [1] was determined as 0.00049 µg/mL.

Consider `CCC(C)C(=O)OC1CCC=C2C=CC(C)C(CCC3CC(O)CC(=O)O3)C21` (centres unmarked) [ML-236B], for which, in assay [2], the serum cholesterol levels entry is listed as “significantly reduces serum cholesterol levels of animals”. Also, the “inhibition of the biosynthesis of cholesterol by enzymes or cultured cells” value in assay [3] was “inhibit the biosynthesis of cholesterol”. In addition, the “concentration required to inhibit cholesterol biosynthesis by 50%” value in assay [1] came out at 0.01 µg/mL.

`CC[C@H](C)C(=O)O[C@H]1CC=CC2=C[C@@H](O)[C@H](C)[C@H](CC[C@@H]3C[C@@H](O)CC(=O)O3)[C@H]21` [IsoM-4' lactone]: in assay [1], the “concentration required to inhibit cholesterol biosynthesis by 50%” value was 0.013 µg/mL.

Take `CC[C@H](C)C(=O)O[C@H]1C[C@H](O)C=C2C=C[C@H](C)[C@H](CC[C@@H](O)C[C@@H](O)CC(=O)OC)[C@H]21` [M-4 methyl ester]: in assay [1], the “concentration required to inhibit cholesterol biosynthesis by 50%” value was found to be 0.001 µg/mL.

On to `CC[C@H](C)C(=O)O[C@H]1C[C@H](O)C=C2C=C[C@H](C)[C@H](CC[C@@H](O)C[C@@H](O)CC(=O)O)[C@H]21` [M-4 sodium salt], for which, in assay [1], the “concentration required to inhibit cholesterol biosynthesis by 50%” value was found to be 0.0008 µg/mL.
